Key:
Format in all cases: cell-based, human
[1] = test system: HCT15 and DLD-1 cell lines; experiment: c-Myc localization by immunocytochemistry, SVCT-2 low-expression cell lines; conditions: vitamin C 1 mM or 10 μM
Description: (§1) Cells treated with vitamin C were immobilized with 4% paraformaldehyde for 10 minutes and were washed with PBS 3 times for 5 minutes, and then permeable buffer (Biolegend, San Diego, Calif., USA) was treated for 10 minutes. Then, cells were washed with PBS 3 times and were cultured with anti-c-Myc (1:500; NB200-108, Novus biologics) antibody at 4° C. overnight. Then, after washing with PBS 4 times, cells were cultured with a secondary anti-mouse-TRITC (1:1000; ab6786; Abcam) conjugated antibody.
In order to investigate the expression of cancer proliferation markers in SVCT-2 low-expression cell lines and localization where c-Myc is present in cancer cell lines, after treating vitamin C of 1 mM or 10 μM to each SVCT-2 low-expression cell line, HCT15 and DLD-1 cell lines, the immunocytochemistry of Experimental example 5 was conducted, and the result was shown in FIGS. 4a and 4b.

[2] = test system: SVCT-2 low-expression cell lines (DLD1 and HCT15); experiment: ROS production by DCF-Da staining (FACS), SVCT-2 low-expression cell lines; conditions: 15 minutes, DLD-1 and HCT15
Description: In order to investigate ROS production, when treating vitamin C of 10 μM or 1 mM to SVCT-2 low-expression cell lines (DLD1 and HCT15), after treating each dose of vitamin C to SVCT-2 low-expression cell lines, they were stained with DCF-Da, and the ROS measurement result was shown in FIG. 3a and FIG. 3b.

HCT15 and DLD-1 = experiment: Western blot of Bax, c-Myc and Cyclin D1, SVCT-2 low-expression cell lines
Description: (§2) Protein was extracted from frozen tissue using PRO-PREP protein extraction kit according to the instruction of the manufacturer. The protein concentration was measured using Bradford assay (Bio-RAD, Munich, Germany)
(§3) After denaturalizing protein 30 μg in sample buffer at 95° C. for 6 minutes, samples were loaded on 12% SDS-polyacrylamide gel and were transferred to a nitrocellulose blotting membrane. Subsequently, the membrane was blocked with 5% skim milk in Tris-buffered saline. Then, after washing it with Tris-buffered saline-0.10% Tween 20 three times, the membrane was cultured at 4° C. overnight with anti-cyclin D1 (1:2500; NB600-584; Novus biologics), anti-c-Myc (1:2500; NB200-108; Novus biologics), anti-Bax (1:2000; 2774; Cell Signaling Technology, Beverly, Mass., USA), and anti-beta-actin (1:5000; ab20272; Abcam, Cambridge, Mass., USA) antibodies. Then, after washing it with Tris-buffered saline-0.10% Tween 20 4 times for 20 minutes, the membrane was cultured with a secondary anti-rabbit, anti-rat or anti-goat antibody for 1 hour. After additional washing, immunoreactive bands exposed to ECL substrate (Pierce, Rockford, Ill., USA) and X-ray film (Agfa-Gevaert N.V, Septestraat, Mortsel, Belgium) were detected.
In order to investigate the apoptosis and proliferation of cancer cells by vitamin C treatment in the protein expression level, a low concentration or high concentration of vitamin C was treated to SVCT-2 low-expression cell lines and the western blot analysis of Bax, c-Myc, and Cyclin D1 was conducted using the method of Experimental example 4, and the result was shown in FIG. 4c and FIG. 4d.

[3] = test system: SVCT-2 high-expression cell lines, Sw480 and Sw620; experiment: Cell viability of Sw480 and Sw620 treated with vitamin C and/or phloretin; conditions: for cell response (cell viability): Sw620 and Sw480
Description: (§4) The cell viability was measured by Neutral red (sigma) assay. Cells (1×10^4/each well) were inoculated on a 96-well plate and were cultured for 24 hours and were treated with vitamin C for 4 hours, and then were washed with PBS (Pan Biotech), and were further cultured in RPMI1640 without vitamin C for 20 hours. They were washed twice and were stained.

[4] = test system: Sw620 and Sw480 cell lines; experiment: ROS production by DCF-Da staining (FACS), SVCT-2 high-expression cell lines
Description: In order to confirm ROS production in SVCT-2 high-expression cell lines in the apoptosis response and hormetic response, and more specifically confirm the cause of the result of Example 5, the present inventors investigated ROS production using DCF-Da staining in Sw620 cell line and Sw480 cell line, and the result was shown in FIG. 5c and FIG. 5d.

[5] = test system: SVCT-2 high-expression cell lines, Sw480 and Sw620; experiment: Western blot of Bax, c-Myc and Cyclin D1, SVCT-2 high-expression cell lines
Description: as §2, §3
After treating vitamin C 10 μM and phloretin to SVCT-2 high-expression cell lines, Sw480 and Sw620 at the same time, the western blot analysis of Bax, c-Myc and Cyclin D1 in cells was conducted, and the result was shown in FIG. 6c and FIG. 6d.

[6] = test system: SVCT-2 low-expression cell lines (HCT116, CoLo-205, HCT15, DLD-1); experiment: Cell viability (Neutral red), vitamin C concentration gradient, SVCT-2 low-expression cell lines
Description: as §4
(§5) In order to research a role conducted by vitamin C treated at a high concentration or low concentration to cancer cell lines, after treating vitamin C at various concentrations according to a concentration gradient to each cell line, the cell viability analysis was conducted using the method of Experimental example 2.
After treating vitamin C to SVCT-2 low-expression cell liens (HCT116, CoLo-205, HCT15, DLD-1) according to a concentration gradient (0 μm to 2 mM), the cell viability was measured, and the result was shown in FIG. 2a.

[7] = test system: SVCT-2 low-expression cell lines, DLD-1 and HCT15; experiment: qRT-PCR gene expression analysis, SVCT-2 low-expression cell lines
Description: (§6) According to the method provided by the manufacturer, the total RNA of cells was extracted using TRI reagent (MRC; Molecular Research Center, Cincinnati, Ohio, USA). The RNA concentration was determined using a spectrophotometer reading the absorbance at 260 nm. cDNA was synthesized using mML-V reverse transcriptase (Bioneer Co, Daejeon, Republic of Korea) according to the protocol provided by the manufacturer. Then, using SYBR Premix Ex Taq (TaKaRa, Otsu, Shinga, Japan) and Rotor-Gene Q system (Qiagen, Chadstone, Victoria, Australia), quantitative real-time PCR was carried out. Data were analyzed using Rotor-Gene Q series software version 2.3.1 (Qiagen).
(§7) In order to confirm the apoptosis and hormetic proliferation response by vitamin C, the quantitative real-time polymerase chain reaction (qRT-PCR) gene-expression analysis of p53, Cyclin D1, E2F1 and Ki-67 genes was conducted using the method of Experimental example 3, and the result was shown in FIG. 2c to FIG. 2f.

[8] = test system: SVCT high-expression cell lines (Sw480, Sw620, LoVo, SNU-C4); experiment: Cell viability (Neutral red), vitamin C concentration gradient, SVCT-2 high-expression cell lines
Description: as §4, §5
As same as the SVCT low-expression cell lines, after treating vitamin C to SVCT high-expression cell lines (Sw480, Sw620, LoVo, SNU-C4) according to a concentration gradient (0 μm to 2 mM), the cell viability was measured, and the result was shown in FIG. 2b. It was confirmed that in case of high-expression cell lines, when treating a low concentration of vitamin C, the cell viability was reduced, and as the treated concentration of vitamin C increased, the cell viability was reduced more.

[9] = test system: SVCT-2 high-expression cell lines, Sw620 and Sw480; experiment: qRT-PCR gene expression analysis, SVCT-2 high-expression cell lines
Description: as §6, §7
After treating vitamin C 10 μM and phloretin to SVCT-2 high-expression cell lines, Sw480 and Sw620 at the same time, the relative expression of Ki-67 and E2F1 used as cancer cell proliferation markers was measured using the qRT-PCR of Example 1, and the result was shown in FIG. 5e and FIG. 5f.

[10] = test system: colorectal cancer cell lines (Sw480, Sw620, LoVo, SNU-C4, HCT116, SNU-05, CoLo-205, HCT15, DLD-1); experiment: Cell viability (Neutral red) of colorectal cancer cell lines treated with 1 mM vitamin C; conditions: nine colorectal cancer cell lines
Description: Human colorectal cancer cells were cultured in RPMI1640 medium Gilbco, Cergy Pontoise, France) containing 10% bovine fetal serum (PAN Biotech, Aidenbach, Germany) and 1% Penstrep (PAN Biotech) in a humidified incubator comprising 5% CO2 under the condition of 37° C. Vitamin C was purchased from BCWORLD PHARM (BCWORLD PHARM. CO, Seoul, Korea), and phloretin was purchased from sigma Aldrich (Sigma, St. Louis, Mo., USA).
The human colorectal cancer cell lines used in the experiment were Sw480, Sw620, HCT116, HCT15, SNU-C4, SNU-05, DLD-1, LoVo, and CoLo-205 cell lines commonly used in the related art. All the colorectal cancer cell lines used in the experiment of the present invention were received from Dr. Yu Byung-Chul of National Cancer Center.
as §4
The cell viability of each colorectal cancer cell line was measured using the method of Experimental example 2, and the result was shown in FIG. 1b.

[11] = test system: SVCT-2 high-expression cell lines, Sw480 and Sw620; experiment: Vitamin C absorption in Sw480 and Sw620 with the SVCT family inhibitor phloretin; conditions: phloretin 20 μM together with vitamin C 1 mM
Description: In order to measure the vitamin C absorption of each colorectal cancer cell line, the absorption of vitamin C in cells was analyzed with High Performance Liquid Chromatography (HPLC), and the result was shown in FIG. 1c.
Then, after treating 1 mM vitamin C, or treating vitamin C 1 mM and phloretin 20 μM together to each cell line of the SVCT-2 high-expression cell lines, Sw480 and Sw620, the vitamin C absorption was measured, and the result was shown in FIG. 9a.
The experimental results measured according to the method for measuring the vitamin C absorption of SVCT-2 expression cell lines of Example 1-3, after treating various concentrations (0 mM or 1 mM) of vitamin C and treating 1 mM vitamin C and 20 μM phloretin, for SVCT-2 high-expression cell lines, Sw480 and Sw620 were shown in FIG. 9a.

[12] = test system: SVCT-2 high-expression cells; experiment: c-Myc localization by immunocytochemistry, SVCT-2 high-expression cell lines; conditions: phloretin treated together with vitamin C
Description: as §1
In order to confirm the cell proliferation by the hormetic response in cancer cell lines, the cell proliferation confirmation experiment through c-Myc was conducted.
Specifically, after smearing cells on cover glass and culturing them, vitamin C was treated and after washing with PBS, an antigen with […] as antigens was attached to cells, and it was confirmed through fluorescence.

[13] = 10 μM or 1 mM vitamin C without phloretin
[14] = low concentration (10 μM) vitamin C, DLD-1 and HCT15
[15] = vitamin C 10 μM or 1 mM, Sw620 and Sw480
[16] = 10 μM vitamin C and phloretin at the same time
[17] = vitamin C 10 μM and phloretin at the same time, Sw620 and Sw480

## O=C1O[C@H]([C@@H](O)CO)C(O)=C1O [vitamin C, L-ASCORBIC ACID]
[1]
  c-Myc localization (immunocytochemistry): almost localized in cytoplasm
[2]; 10 μM vitamin C
  ROS production (DCF-Da): not produced
[2]; 1 mM vitamin C
  ROS production (DCF-Da): produced
HCT15 and DLD-1; 10 μM vitamin C
  expression of c-Myc (western blot): increased
  expression of cyclin D1 (western blot): increased
HCT15 and DLD-1; 1 mM vitamin C
  expression of c-Myc (western blot): reduced
  expression of cyclin D1 (western blot): reduced
HCT15 and DLD-1; vitamin C 1 mM and 10 μM
  Bax expression (western blot): did not significantly change
[3]; vitamin C 1 mM and 10 μM, without phloretin
  cell response (cell viability): apoptosis response was induced
[4]; 1 mM vitamin C or 10 μM vitamin C
  ROS production (DCF-Da): produced
[5]; [13]
  expression of C-Myc (western blot): significantly reduced
  expression of cyclin D1 (western blot): significantly reduced
[5]; vitamin C treatment (10 μM or 1 mM)
  Bax expression (western blot): increased
[6]; vitamin C 1.0 mM to 2.0 mM or more
  cell viability: dramatically reduced
[6]; vitamin C less than 10 μM
  cell viability: over 100%
[7]; 10 μM and 1 mM tested, SVCT-2 low-expression cell lines
  expression of p53 (qRT-PCR): induced only in case of treatment of 1 mM vitamin C
[7]; [14]
  expression of E2F1 (qRT-PCR): increased
  expression of Ki-67 (qRT-PCR): increased
  expression of cyclin D1 (qRT-PCR): increased
[8]; as the treated concentration of vitamin C increased (up to 2 mM)
  cell viability: reduced more
[8]; low concentration of vitamin C
  cell viability: reduced
[9]; 10 μM and 1 mM, SVCT-2 high-expression cell lines
  expression of p53 (qRT-PCR): increased
[9]; [15]
  expression of E2F1 (qRT-PCR): reduced
  expression of Ki-67 (qRT-PCR): reduced
  expression of cyclin D1 (qRT-PCR): reduced
[10]
  cytotoxicity of vitamin C (cell viability): proportional to SVCT-2 expression

## O=C(CCc1ccc(O)cc1)c1c(O)cc(O)cc1O [phloretin]
[3]; concentration of phloretin used in the experiment (20 μM; 0-40 μM tested), Sw480 and Sw620
  cytotoxicity of phloretin (cell viability assay): no cell self-toxicity
[3]; phloretin together with vitamin C 10 μM
  cell response (cell viability): hormetic proliferation response occurred
[4]; 20 μM phloretin with 10 μM vitamin C
  ROS production (DCF-Da): not sufficiently produced
[5]; [16]
  expression of C-Myc (western blot): increased
  expression of cyclin D1 (western blot): increased
[5]; phloretin treatment (with 10 μM vitamin C)
  Bax expression (western blot): did not change remarkably
[11]
  intracellular capacity of vitamin C (vitamin C absorption): reduced
[12]
  localization of increased c-Myc (immunocytochemistry): present in cytoplasm not a nucleus
[9]; [17]
  expression of E2F1 (qRT-PCR): increased
  expression of Ki-67 (qRT-PCR): increased
